Source: publication PMC9610606, “Design, Synthesis, In Silico Testing, and In Vitro Evaluation of Thiazolidinone-Based Benzothiazole Derivatives as Inhibitors of α-Amylase and α-Glucosidase” (Pharmaceuticals, 2022)

Experiments:
[1] = biological target: T1, α-amylase (Sus scrofa, UniProt P00690); test: In vitro α-amylase inhibitory assay; type: biochemical
T1 sequence (P00690 16-511): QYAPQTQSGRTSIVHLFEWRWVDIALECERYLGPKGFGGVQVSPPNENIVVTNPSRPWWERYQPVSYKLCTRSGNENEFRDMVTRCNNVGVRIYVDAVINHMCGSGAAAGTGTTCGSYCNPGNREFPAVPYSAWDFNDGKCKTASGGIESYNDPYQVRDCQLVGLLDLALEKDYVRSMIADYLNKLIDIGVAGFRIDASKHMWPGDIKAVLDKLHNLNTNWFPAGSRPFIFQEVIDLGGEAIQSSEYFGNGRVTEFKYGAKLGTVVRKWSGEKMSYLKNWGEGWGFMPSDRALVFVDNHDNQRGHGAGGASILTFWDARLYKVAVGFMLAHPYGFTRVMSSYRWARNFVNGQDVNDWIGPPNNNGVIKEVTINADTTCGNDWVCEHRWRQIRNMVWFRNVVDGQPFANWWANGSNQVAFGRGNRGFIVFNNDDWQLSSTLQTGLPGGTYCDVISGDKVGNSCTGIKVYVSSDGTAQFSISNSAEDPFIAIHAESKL
Description: (§1) Biological profile of all the candidates were obtained through experimental-based analysis, as described in the inhibitory assay (5.3 and 5.4). […]
absorbance was recorded using an ELISA microplate reader at 540 nm. […]
the standard. All the reactions were carried out in triplicates. The reaction mixture, devoid of the test sample, served as control. […]
(§2) PDB format. The process was further carried out in auto dock in which polar hydrogen and Kollman and Gasteiger charges were add ed to protein. Selected ligand was also prepared done by using torsion tree to detect root. Moreover, configuration file was generated along with X, Y and Z axis save both ligand and protein in PDBQT format in the same docking folder. At the end

[2] = biological target: α-glucosidase (Saccharomyces cerevisiae, UniProt P53341); type: biochemical
Chain of α-glucosidase (P53341 whole entry): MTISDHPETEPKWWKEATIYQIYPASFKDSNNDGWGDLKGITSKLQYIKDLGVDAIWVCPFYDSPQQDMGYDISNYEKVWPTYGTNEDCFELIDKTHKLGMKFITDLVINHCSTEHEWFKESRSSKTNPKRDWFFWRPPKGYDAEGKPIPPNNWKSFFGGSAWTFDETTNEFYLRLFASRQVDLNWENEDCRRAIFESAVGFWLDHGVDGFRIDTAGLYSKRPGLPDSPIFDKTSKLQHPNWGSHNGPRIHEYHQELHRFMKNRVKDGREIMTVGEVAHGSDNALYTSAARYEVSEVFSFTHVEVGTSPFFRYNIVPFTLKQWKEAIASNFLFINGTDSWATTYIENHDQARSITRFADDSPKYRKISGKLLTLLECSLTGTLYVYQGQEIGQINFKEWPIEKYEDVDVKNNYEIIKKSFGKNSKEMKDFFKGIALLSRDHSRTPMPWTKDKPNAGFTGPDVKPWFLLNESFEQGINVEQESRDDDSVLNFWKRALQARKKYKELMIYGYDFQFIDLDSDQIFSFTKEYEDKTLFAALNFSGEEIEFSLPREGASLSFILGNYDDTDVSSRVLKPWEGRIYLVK
Description: as §1
5.4 α-glucosidase inhibitory assay protocol
10 µl of the α-glucosidase enzyme, 20 µl of test samples (10-50 µg/ml) and 50 µl, of 0.1M […]
nitrophenyl—D-g lucopy ranoside solution was fu rther added as a substrate and again incubated for 20 min at 37 °C. Sodium carbonate (50 µl of 0.1M) was added to terminate the reaction. P- […]
conditions by omitting test samples. All the experiments were carried out in triplicates. The percentage inhibition was calculated by the formula.
% Inhibition = [(Ac – As) /Ac] × 100 Ac-absorbance for control, As-absorbance for standard. […]
as §2

## O=C1N/C(=N/c2nccs2)S/C1=C\c1ccc2ncsc2c1-c1cccc([N+](=O)[O-])c1Cl [Compound 9, (2Z,5Z)-5-((7-(2-chloro-3-nitrophenyl)benzo[d]thiazol-6-yl)methylene)-2-(thiazol-2-ylimino)thiazolidin-4-one]
other
  melting point: 241 to 242 °C

## CN(C)c1cc(/C=C2\S/C(=N\c3nccs3)NC2=O)cc2scnc12 [Compound 10, (2Z,5Z)-5-((4-(dimethylamino)benzo[d]thiazol-6-yl)methylene)-2-(thiazol-2-ylimino)thiazolidin-4-one]
other
  melting point: 227 to 228 °C

## N#Cc1cccc(-c2c(/C=C3\S/C(=N\c4nccs4)NC3=O)ccc3ncsc23)c1 [Compound 15, 3-(6-((Z)-((Z)-4-oxo-2-(thiazol-2-ylimino)thiazolidin-5-ylidene)methyl)benzo[d]thiazol-7-yl)benzonitrile]
other
  melting point: 243 to 244 °C

## (2Z,5Z)-5-((5-nitrobenzo [d]thiazol-6-yl) methylene)-2-(thiazol-2-ylimino)thiazolidin-4-one [Compound 1]
[1]
  IC50: 7.7 ± 0.2 µM
[2]
  IC50: 8.8 ± 0.2 µM

## (2Z,5Z)-5-((7-hydroxy-4-(trifluoromethyl)benzo[d]thiazol-6-yl)methylene)-2-(thiazol-2-ylimino)thiazolidin-4-one [Compound 6]
[1]
  IC50: 2.1 ± 0.7 µM
[2]
  IC50: 3.2 ± 0.7 µM
